Experimental findings from US9476064B2, “Neuro-progenitor produced from an SCNT-derived ES cell” (H. Bion Co., Ltd., priority 2003, dated 2016) are described below.

The experiment has as its system nucleus-transferred oocytes. In words: Development of nucleus-transferred oocytes after reprogramming and chemical activation. As to conditions: then 2.0 mM 6-DMAP, reprogramming time 2 hour, G1.2 then SNUnt-2, 16 oocytes. The experiment is classed as cell-based, human. An excerpt: Since a sperm-mediated activation, which is one of the major factors for a normal embryonic development, was absent in case of the nucleus-transferred oocyte obtained in Example 2, an artificial stimulus was needed instead. In order to determine the optimum conditions for artificial embryogenesis, therefore, nucleus-transferred oocytes were reprogrammed, activated and in vitro cultured under various conditions as shown in Tables 2 to 4.
Such nucleus-transferred oocytes were washed several times with the G1.2 medium, transferred to the G1.2 medium containing 2.0 mM 6-DMAP (Sigma Co., St. Louis, Mo., U.S.A.) and, then, cultured at 37° C., 5% CO2, 5% O2 and 90% N2 for 4 hours. After these activation steps, the nucleus-transferred oocytes were in vitro cultured under the same condition.

`C[C@H](CCC(=O)O)C[C@H](C)C[C@H](C)C(=O)/C=C(\O)[C@H](C)C[C@H](C)C/C=C/[C@@H](C)[C@@H](O)[C@@H](C)[C@@H](O)C[C@@H]1CC[C@@](C)([C@H]2CC[C@@](C)([C@@H](C)O)O2)O1` [ionomycin]: under “5 μM”, the “No. of nucleus-transferred oocytes developed to 2-cell stage” value was found to be 9, the “No. of nucleus-transferred oocytes developed to blastocyst” value was 0 and the “No. of nucleus-transferred oocytes developed to morula” value is 0. Further, under “10 μM”, the “No. of nucleus-transferred oocytes developed to 2-cell stage” value was determined as 12, the “No. of nucleus-transferred oocytes developed to blastocyst” value is listed as 0 and the “No. of nucleus-transferred oocytes developed to morula” value is on record as 0.
